Measurements reported in patent publication US6528494B2 (priority 1996, dated 2003).
Counter-ions that a name gives are not always drawn.

Experiments:
Type in all cases: cell-based
adenosine 3 receptor = target: T1, adenosine 3 receptor (Homo sapiens, UniProt P0DMS8); assay: Agonist activity against adenosine 3 receptor (CHO cells, forskolin-enhanced cAMP/SPAP reporter); conditions: CHO cells transfected with human receptor, forskolin-enhanced cAMP via SPAP, mean of all the versions tested
T1 sequence (P0DMS8 1-318): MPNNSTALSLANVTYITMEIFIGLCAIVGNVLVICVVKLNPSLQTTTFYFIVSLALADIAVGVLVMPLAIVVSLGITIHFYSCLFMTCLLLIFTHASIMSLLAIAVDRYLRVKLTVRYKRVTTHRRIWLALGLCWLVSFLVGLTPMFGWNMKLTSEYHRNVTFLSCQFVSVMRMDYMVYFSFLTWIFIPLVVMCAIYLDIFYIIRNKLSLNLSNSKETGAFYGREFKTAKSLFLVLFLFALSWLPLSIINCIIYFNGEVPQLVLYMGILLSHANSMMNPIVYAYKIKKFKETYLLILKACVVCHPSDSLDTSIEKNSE
Protocol: (§1) (1) Agonist activity against adenosine 2a, adenosine 1 and adenosine 3 receptor subtypes.
(§2) The effect of test compounds was determined by their effects on basal levels of cAMP (A2a) or on forskolin-enhanced cAMP (A1 and A3) as reflected by changes in levels of SPAP.

adenosine 2a receptor = adenosine 2a receptor (Homo sapiens, UniProt P29274); assay: Agonist activity against adenosine 2a receptor (CHO cells, cAMP/SPAP reporter); conditions: CHO cells transfected with human receptor, basal cAMP via SPAP, mean of all the versions tested
Sequence of adenosine 2a receptor (P29274 whole entry): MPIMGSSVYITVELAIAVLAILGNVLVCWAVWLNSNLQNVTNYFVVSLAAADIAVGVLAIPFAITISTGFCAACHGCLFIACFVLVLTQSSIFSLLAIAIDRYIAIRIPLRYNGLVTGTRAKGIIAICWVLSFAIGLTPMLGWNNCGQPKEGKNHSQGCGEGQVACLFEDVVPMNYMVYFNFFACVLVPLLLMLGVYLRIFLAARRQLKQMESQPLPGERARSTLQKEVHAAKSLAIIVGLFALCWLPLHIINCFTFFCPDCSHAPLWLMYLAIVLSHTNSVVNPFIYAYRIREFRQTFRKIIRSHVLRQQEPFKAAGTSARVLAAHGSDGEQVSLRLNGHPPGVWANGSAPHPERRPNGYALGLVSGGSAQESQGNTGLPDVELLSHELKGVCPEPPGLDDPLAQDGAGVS
Protocol: as §1, §2

adenosine 1 receptor = target: T2, adenosine 1 receptor (Homo sapiens, UniProt P30542); assay: Agonist activity against adenosine 1 receptor (CHO cells, forskolin-enhanced cAMP/SPAP reporter); conditions: CHO cells transfected with human receptor, forskolin-enhanced cAMP via SPAP, mean of all the versions tested
T2 sequence (P30542 1-326): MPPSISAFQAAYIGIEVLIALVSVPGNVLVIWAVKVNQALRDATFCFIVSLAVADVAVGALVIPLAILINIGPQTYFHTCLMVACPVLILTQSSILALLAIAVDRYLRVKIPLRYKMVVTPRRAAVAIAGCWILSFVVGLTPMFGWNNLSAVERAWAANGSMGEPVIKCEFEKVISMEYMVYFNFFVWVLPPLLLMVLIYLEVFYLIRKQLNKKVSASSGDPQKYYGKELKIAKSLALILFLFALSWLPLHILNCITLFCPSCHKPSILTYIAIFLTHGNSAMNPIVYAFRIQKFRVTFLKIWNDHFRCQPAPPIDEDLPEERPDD
Protocol: as §1, §2

Compound | A3 EC50 as a ratio of that of NECA (adenosine 3 receptor) | A2a EC50 as a ratio of that of NECA (adenosine 2a receptor) | A1 EC50 as a ratio of that of NECA (adenosine 1 receptor) | A3 EC50 as a ratio of that of NECA (adenosine 3 receptor; Dihydrochloride) | A2a EC50 as a ratio of that of NECA (adenosine 2a receptor; Dihydrochloride) | A1 EC50 as a ratio of that of NECA (adenosine 1 receptor; Dihydrochloride)
CC(=O)O.CCC(CC)Nc1nc(NCCc2cn(C)cn2)nc2c1ncn2[C@@H]1O[C@H](c2nnn(CC)n2)[C@@H](O)[C@H]1O [Example 6, (2R,3R,4S,5R)-2-{6-(1-Ethyl-propylamino)-2-[2-(1-methyl-1H-imidazol-4-yl)-ethylamino]-purin-9-yl}-5-(2-ethyl-2H-tetrazol-5-yl)-tetrahydro-furan-3,4-diol Acetate] | >256 | 0.14 | 34.4 |  |  | 
CCn1nnc(C2OC(n3cnc4c(NCC(c5ccccc5)c5ccccc5)nc(NC5CCNC5)nc43)C(O)C2O)n1 [Example 84, (2R,3R,4S,5R)-2-[6-(2,2-Diphenyl-ethylamino)-2-(pyrrolidin-3S-ylamino)-purin-9-yl]-5-(2-ethyl-2H-tetrazol-5-yl)-tetrahydro-furan-3,4-diol bis(Trifluoroacetate)] | >103 | 2.50 | 490.80 |  |  | 
CCC(CC)Nc1nc(NC2CCC(N)CC2)nc2c1ncn2C1OC(c2nnn(C)n2)C(O)C1O.O=CO.O=CO [Example 87, (2R,3R,4S,5R)-2-[2-(trans-4-Amino-cyclohexylamino)-6-(1-ethyl-propylamino)-purin-9-yl]-5-(2-methyl-2H-tetrazol-5-yl)-tetrahydro-furan-3,4-diol Diformate] | >320 | 1.61 | 348.11 |  |  | 
CC(C)n1nnc(C2OC(n3cnc4c(NC5CCCC5)nc(NCCN5CCCC5)nc43)C(O)C2O)n1.O=CO.O=CO [Example 81, (2R,3R,4S,5R)-2-[6-Cyclopentylamino-2-(2-pyrrolidin-1-yl-ethylamino)-purin-9-yl]-5-(2-isopropyl-2H-tetrazol-5-yl)-tetrahydro-furan-3,4-diol Diformate] | >156 | 4.77 | 89.11 |  |  | 
CCn1nnc(C2OC(n3cnc4c(NCc5cccc(I)c5)nc(NC5CCC(N)CC5)nc43)C(O)C2O)n1.O=CO.O=CO [Example 100, (2R,3R,4S,5R)-2-[2-(trans-4-Amino-cyclohexylamino)-6-(3-iodo-benzylamino)-purin-9-yl]-5-(2-ethyl-2H-tetrazol-5-yl)-tetrahydro-furan-3,4-diol Diformate] | >127 | 5.71 | 292.70 |  |  | 
CCn1nnc(C2OC(n3cnc4c(NCC(c5ccccc5)c5ccccc5)nc(NC5CCNC5)nc43)C(O)C2O)n1 [Example 21, (2R,3R,4S,5R)-2-[6-(2,2-Diphenyl-ethylamino)-2-(pyrrolidin-3R-ylamino)-purin-9-yl]-5-(2-ethyl-2H-tetrazol-5-yl)-tetrahydro-furan-3,4-diol Dihydrochloride] |  |  |  | >442 | 0.69 | 237.9
COc1ccc(CCNc2nc(N)c3ncn([C@@H]4O[C@H](c5nnn(C)n5)[C@@H](O)[C@H]4O)c3n2)cc1OC.O=CO [Example 38, (2R,3R,4S,5R)-2-{6-Amino-2-[2-(3,4-dimethoxy-phenyl)-ethylamino]-purin-9-yl}-5-(2-methyl-2H-tetrazol-5-yl)-tetrahydro-furan-3,4-diol Formate] | >315 | 0.13 | 946 |  |  | 
CCn1nnc(C2OC(n3cnc4c(NC(CO)Cc5ccccc5)nc(NC5CCNC5)nc43)C(O)C2O)n1 [Example 62, (2R,3S,4R,5R)-2-(2-Ethyl-2H-tetrazol-5-yl)-5-[6-(1S-hydroxymethyl-2-phenyl-ethylamino)-2-(pyrrolidin-3R-ylamino)-purin-9-yl]-tetrahydro-furan-3,4-diol bis(Formate)] | >295 | 2.29 | 21.10 |  |  | 
Cn1nnc(C2OC(n3cnc4c(NC(CO)Cc5ccccc5)nc(NC(CO)Cc5ccccc5)nc43)C(O)C2O)n1 [Example 110, (2R,3R,4S,5R)-2-[2,6-Bis-(1S-Hydroxymethyl-2-phenyl-ethylamino)-purin-9-yl]-5-(2-methyl-2H-tetrazol-5-yl)-tetrahydro-furan-3,4-diol Formate] | >315 | 5.00 | 3.13 |  |  | 
CCC(CC)Nc1nc(NCCc2ccccn2)nc2c1ncn2C1OC(c2nnn(C)n2)C(O)C1O.O=CO.O=CO [Example 89, (2R,3R,4S,5R)-2-[6-(1-Ethyl-propylamino)-2-(2-pyridin-2-yl-ethylamino)-purin-9-yl]-5-(2-methyl-2H-tetrazol-5-yl)-tetrahydro-furan-3,4-diol Diformate] | >243 | 2.22 | >9363.00 |  |  | 
CCn1nnc(C2OC(n3cnc4c(NCc5cccc(I)c5)nc(NC5CCNC5)nc43)C(O)C2O)n1 [Example 76, (2R,3S,4R,5R)-2-(2-Ethyl-2H-tetrazol-5-yl)-5-[6-(3-iodo-benzylamino)-2-(pyrrolidin-3S-ylamino)-purin-9-yl]-tetrahydro-furan-3,4-diol bis(Formate)] | >155 | 2.93 | 215.30 |  |  | 
COc1ccc(CCNc2nc(N)c3ncn([C@@H]4O[C@H](c5nnn(C(C)C)n5)[C@@H](O)[C@H]4O)c3n2)cc1OC.O=CO [Example 42, (2R,3R,4S,5R)-2-{6-Amino-2-[2-(3,4-dimethoxy-phenyl)-ethylamino]-purin-9-yl}-5-(2-isopropyl-2H-tetrazol-5-yl)-tetrahydro-furan-3,4-diol Formate] | >413 | 0.63 | 414.9 |  |  | 
(2R,3R,4S,5R)-2-[2-(1-Benzyl-pyrrolidin-3-ylamino)-6-cyclopentylamino-purin-9-yl]-5-(2-ethyl-2H-tetrazol-5-yl)-tetrahydro-furan-3,4-diol bis(Formate) [Example 66] | >158 | 1.53 | 48.60 |  |  | 
(2R,3R,4S,5R)-2-[2-(trans-4-Amino-cyclohexylamino)-6-cyclopentylamino-purin-9-yl]-5-(2-methyl-2H-tetrazol-5-yl)-tetrahydro-furan-3,4-diol Diformate [Example 92] | >192 | 1.24 | 253.70 |  |  | 
